{"source": "patent US20140199714A1", "about": "“METHOD FOR DETECTING CANCER CELLS METASTASIZING INTO SENTINEL LYMPH NODE” (SHINSHU UNIVERSITY, priority 2008, published 2014)", "system": "E-selectin on human LECs", "test": "Immunohistochemical expression of E-selectin on cultured human LECs", "assay_type": "cell-based", "protocol": "Using an indirect immunohistochemical technique, the inventors examined the effects of the supernatants of culture medium of two kinds of carcinoma cells, MDA-MB-231 and MCF-7, on the expression of adhesion molecules such as E-selectin, P-selectin, vascular cell adhesion molecule (VCAM)-1, and intercellular adhesion molecule (ICAM)-1 on the human LECs. The carcinoma cells were plated in DMEM/F12 with 10% FBS, which was replaced the following day with DMEM/F12 with 3% FBS, and then collected after overnight culture. The collected solution was centrifuged at 2,000 rpm for 5 min. at 4° C. To examine the effects of the supernatants on the expression of the adhesion molecules on the human LECs, 1 mL of each collected solution was added to starvation culture medium, EBM-2 with 3% FBS of the human LECs, and then stimulated for 48 hrs. on the cells. In some experiments, the supernatant solutions at different concentrations (1/100 or 1/10,000 dilution) were constructed with appropriate volumes of DMEM/F12 with 3% FBS.\nIndirect immunohistochemical studies were performed on the cultured LECs seeded or glass slides coated with type I collagen, and then the cells were fixed with 3.3% formalin in phosphate-buffered saline solution (PBS), for 20 min. at room temperature. The cells were washed three times with PBS, and then incubated overnight at 4° C. with primary polyclonal human antisera to E-selectin/CD62E (dilution 10 μg/mL, available from R&D Systems, US), P-selectin/CD62P (dilution 10 μg/mL, available from R&D Systems, US), VCAM-1/CD106 (dilution 10 μg/mL, available from R&D Systems, US), and ICAM-1/CD54 (dilution 10 μg/mL, available from R&D Systems, US).\nBefore primary staining, the cultured cells were permeabilized with 0.1% TRITON-X. After washing three times in PBS, the cells were incubated for 1 hr. at room temperature with 1:100 diluted ALEXA FLUOR 488 donkey anti-mouse IgG (available from Invitrogen, US). The nuclei of cultured cells were counter-stained and mounted with PROLONG GOLD antifade reagent with 4′-6-diamidine-2-phenylindole (DAPI) (available from Molecular Probes, US), examined by a fluorescent microscope (Leica, Switzerland), and photographed.\nImmunohistochemistry was performed on the cultured human LECs or the fresh-frozen SLNs isolated from the breast cancer patients. In brief, the cultured LECs were fixed with 10% formalin in the phosphate-buffered saline solution (PBS) at room temperature. The cells were incubated for 4 hrs. at room temperature with primary polyclonal human antisera platelet-endothelial cell adhesion molecule (PECAM)-1 (dilution 1:100, available from BD Biosciences, US), lymphatic vessel endothelial hyaluronan receptor (LYVE)-1 (dilution 1:50, available from RELIATech, Germany), PROX-1 (dilution 1:50, available from AngioBio, US), podoplanin (dilution 1:50, available from AngioBio, US), vascular endothelium growth factor receptor 3 (VEGF R3) (dilution 1:50, available from Santa Cruz, US), E-selectin/CD62E (dilution 1:50, available from R&D systems, US), P-selectin/CD62P (dilution 1:50, available from R&D systems, US), vascular cell adhesion molecule (VCAM)-1/CD106 (dilution 1:50, available from R&D systems, US), and intercellular adhesion molecule (ICAM)-1/CD54 (dilution 1:50, available from R&D systems, US). Before the staining, permeabilization of the cultured cells with 0.1% TRITON-X was performed. Then, the cells were stained using the following antibodies: ALEXA FLUOR 488 chicken anti-rabbit IgG or ALEXA FLUOR 488 donkey anti-mouse IgG (available from Invitrogen, US). The nuclei of the cultured cells were counter-stained and mounted with ProLong Gold antifade reagent with 4′-6-diamidine-2-phenylindole (DAPI) (available from Molecular Probes, US). The cultured cells were examined by a fluorescent microscope (available from Leica, Germany) and photographed. […]"}
{"substance": "CCL2: chemokine CCL2", "values": [{"measurement": "immunoreaction of anti-E-selectin", "setting": "10 ng/mL CCL2, stimulation time increased to 18 hrs. and 48 hrs.", "result": "markedly decreased"}, {"measurement": "staining with E-selectin antiserum on LECs", "setting": "4 hrs-stimulation of 10 ng/mL CCL2", "result": "Slight staining"}, {"measurement": "expression of E-selectin on human LECs", "setting": "18 hrs.-stimulation with 10 ng/mL chemokine", "result": "Little or no expression"}]}
